# Literature values as cited in paper PMC11974678 (bioRxiv, 2025).
# Molecular target: T1, FABP1 (Homo sapiens, UniProt P07148)
# T1 sequence (P07148 with tags, fused parts or gaps): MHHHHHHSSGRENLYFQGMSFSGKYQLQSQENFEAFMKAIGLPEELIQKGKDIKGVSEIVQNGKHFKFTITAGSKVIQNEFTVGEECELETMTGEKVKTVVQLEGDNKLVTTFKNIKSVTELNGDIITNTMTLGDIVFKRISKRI
# Settings: read-out: KD of binding to FABP1
structure (smiles),measurement,value
"O=C(O)C(F)(F)C(F)(F)C(F)(F)C(F)(F)C(F)(F)C(F)(F)C(F)(F)F [335-67-1, perfluorooctanoic acid]",Kd,18.8 µM
